Test results published in patent US20140249056A1, “BILAYERS” (ISIS INNOVATION LIMITED, priority 2009, published 2014).

Tests used:
[1] = biological target: T1, Kv1.3 (K+ channels from lymphocyte membranes) (Homo sapiens, UniProt P22001); assay: Bulk current block of voltage-gated potassium channels from lymphocyte (SupT1) membranes in droplet bilayer; assay type: biochemical; settings: +50 mV
T1 construct: endogenously expressed voltage-gated potassium channels in primary lymphocytes; endogenous in cells; host or cells: SupT1 cells
T1 sequence (P22001 whole entry): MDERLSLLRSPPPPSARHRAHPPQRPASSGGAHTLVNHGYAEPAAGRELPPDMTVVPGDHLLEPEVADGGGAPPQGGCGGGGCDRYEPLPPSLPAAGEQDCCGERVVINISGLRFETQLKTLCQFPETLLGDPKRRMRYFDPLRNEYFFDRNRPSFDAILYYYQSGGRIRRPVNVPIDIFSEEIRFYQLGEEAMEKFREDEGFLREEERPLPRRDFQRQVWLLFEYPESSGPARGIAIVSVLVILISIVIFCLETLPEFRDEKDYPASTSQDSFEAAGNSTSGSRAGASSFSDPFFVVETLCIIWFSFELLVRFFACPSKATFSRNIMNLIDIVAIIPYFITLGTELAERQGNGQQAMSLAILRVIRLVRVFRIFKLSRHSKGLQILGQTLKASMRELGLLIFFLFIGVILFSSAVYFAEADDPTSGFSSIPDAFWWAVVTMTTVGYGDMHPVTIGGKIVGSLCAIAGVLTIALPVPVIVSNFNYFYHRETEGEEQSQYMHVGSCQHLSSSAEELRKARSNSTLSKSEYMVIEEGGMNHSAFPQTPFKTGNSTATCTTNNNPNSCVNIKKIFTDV
Experimental: SupT1 cells were grown as a suspension culture and washed four times in buffer (150 mM KCl, 10 mM Hepes, pH 7.5). Cells were then lysed by hypo-osmotic shock, and membranes isolated by centrifugation and washing in isotonic buffer (140 mM KCl, 10 mM Hepes, pH 7.5). Membranes were diluted 1:10^4 and 1 μL of this solution was deposited on an agarose coated coverslip (1.5%). For bulk current blocking 4-aminopyridine a non-specific K+ channel blocker was used (5 mM, +50 mV). For specific blocking Kaliotoxin, a specific Kv-channel blocker, was used (50 μM, +50 mV).

[2] = biological target: T2, bacterial potassium channel KcsA (Streptomyces lividans, UniProt P0A334); assay: Bulk current block of KcsA from E. coli membranes reconstituted in droplet bilayer; assay type: biochemical; settings: 150 mM Ba2+ (BaCl2) in droplet, +50 mV, n=5
T2 construct: made in house; host or cells: porin-free E. coli strain PC2889, vector pQE60
T2 sequence (P0A334 1-160): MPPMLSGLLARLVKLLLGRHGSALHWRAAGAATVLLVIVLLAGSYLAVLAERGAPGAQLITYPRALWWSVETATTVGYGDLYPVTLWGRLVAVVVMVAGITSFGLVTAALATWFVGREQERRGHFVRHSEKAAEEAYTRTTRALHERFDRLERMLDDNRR
Experimental: KcsA was overexpressed in pQE60 (Qiagen, Germany) using a porin-free E. coli strain PC2889. Cells were disintegrated using a pressure-based cell homogenizer (TC5-612, Stansted Fluid Power, UK) and membranes isolated by centrifugation in water before freezing in liquid nitrogen. Sedimented membranes were resuspended in 150 mM KCl, 10 mM Hepes, pH 7.5. Membrane preparations were diluted 1:10^6 (for all cases dilutions are reported as volume:volume unless stated otherwise) and 1:10^8 for bulk and single channel recordings, respectively. Bulk and single channel recording was performed in 150 mM KCl, 10 mM Succinic acid, pH 4. Blocking experiments were performed using droplets containing 150 mM BaCl2, 10 mM Hepes, pH 7.5 (+50 mV, n=5).

Gardos K+ ion channel = biological target: T3, Gardos K+ ion channel (Homo sapiens, UniProt O15554+P0DP23); assay: Ca2+ dependent K+ flux in red blood cell membranes reconstituted in droplet bilayer; assay type: biochemical; settings: 5 mM Ca2+ versus none, 150 mM KCl, pH 7, +50 mV, n=5
T3 construct: red blood cells were isolated from whole blood; from tissue; host or cells: red blood cells from whole blood
Experimental: Following previously published protocol (Gibson et al, J Physiol: 511(Pt1), 225-234 (1998)), red blood cells were isolated from whole blood of Sickle Cell or healthy individuals by centrifugation and washing four times in PBS buffer (137 mM NaCl, 2.7 mM KCl, 10 mM sodium phosphate dibasic, 2 mM potassium phosphate monobasic, pH 7.4, containing 1% glucose), removing remaining blood components by aspiration. Cells were lysed by hypo-osmotic shock in low salt buffer (15 mM NaCl, 10 mM EDTA, 10 mM Hepes, pH 7). Membranes were then sedimented by centrifugation and washed in low salt buffer four times before resuspension into isotonic buffer (150 mM NaCl or KCl or CaCl2, 10 mM Hepes, pH 7.4). For Gardos channel experiments, membranes were resuspended in isotonic buffer containing 150 mM KCl, 10 mM Hepes, pH 7. Droplets with or without Ca^2+ (150 mM KCl, +/−5 mM CaCl2, +/−5 mM KCl, 10 mM Hepes, pH 7, +50 mV, n=5) were used to observe Ca^2+ dependent K^+ flux. […] Further dilution of 1:20 was needed for single channel recordings.

[3] = system: KATP channel (Kir6.2 and SUR1); assay: Bulk current block of KATP channels from Min6 cell membranes reconstituted in droplet bilayer; assay type: biochemical; settings: glibenclamide 1 mM, +50 mV, 140 mM KCl, 10 mM Hepes, pH 7.5, n=5
Experimental: For KATP channels, Kir6.2 and SUR1 (Sulfonylurea receptor) were co-expressed in Min6 cells. Frozen cells were subjected to three freeze-thaw cycles before they were sonicated for 1 minute (4° C., Sonorex, Bandelin, Germany, 320 W). After isolation of membranes by centrifugation, membranes were washed in isotonic buffer (140 mM KCl, 10 mM Hepes, pH 7.5), and diluted 1:5000. Membranes were incorporated into agarose by mixing (1:10 v:v) with cooling agarose (1.5%) and deposited onto the coverslip prior to device assembly. For single channel recordings the sample was diluted a further 10-fold. Electrical recordings were performed in 140 mM KCl, 10 mM Hepes, pH 7.5 in both droplet and agarose support. Bulk current block was obtained using glybenclamide (1 mM, +50 mV, n=5).

[4] = biological target: Human NR1-1a/NR2A NMDA receptor (Homo sapiens, UniProt Q05586+Q12879); settings: glutamate 10 μM and glycine 10 μM added together, +50 mV, bulk current, n=5
Chain of Human NR1-1a/NR2A NMDA receptor (Q12879 23-1464, other chains not shown): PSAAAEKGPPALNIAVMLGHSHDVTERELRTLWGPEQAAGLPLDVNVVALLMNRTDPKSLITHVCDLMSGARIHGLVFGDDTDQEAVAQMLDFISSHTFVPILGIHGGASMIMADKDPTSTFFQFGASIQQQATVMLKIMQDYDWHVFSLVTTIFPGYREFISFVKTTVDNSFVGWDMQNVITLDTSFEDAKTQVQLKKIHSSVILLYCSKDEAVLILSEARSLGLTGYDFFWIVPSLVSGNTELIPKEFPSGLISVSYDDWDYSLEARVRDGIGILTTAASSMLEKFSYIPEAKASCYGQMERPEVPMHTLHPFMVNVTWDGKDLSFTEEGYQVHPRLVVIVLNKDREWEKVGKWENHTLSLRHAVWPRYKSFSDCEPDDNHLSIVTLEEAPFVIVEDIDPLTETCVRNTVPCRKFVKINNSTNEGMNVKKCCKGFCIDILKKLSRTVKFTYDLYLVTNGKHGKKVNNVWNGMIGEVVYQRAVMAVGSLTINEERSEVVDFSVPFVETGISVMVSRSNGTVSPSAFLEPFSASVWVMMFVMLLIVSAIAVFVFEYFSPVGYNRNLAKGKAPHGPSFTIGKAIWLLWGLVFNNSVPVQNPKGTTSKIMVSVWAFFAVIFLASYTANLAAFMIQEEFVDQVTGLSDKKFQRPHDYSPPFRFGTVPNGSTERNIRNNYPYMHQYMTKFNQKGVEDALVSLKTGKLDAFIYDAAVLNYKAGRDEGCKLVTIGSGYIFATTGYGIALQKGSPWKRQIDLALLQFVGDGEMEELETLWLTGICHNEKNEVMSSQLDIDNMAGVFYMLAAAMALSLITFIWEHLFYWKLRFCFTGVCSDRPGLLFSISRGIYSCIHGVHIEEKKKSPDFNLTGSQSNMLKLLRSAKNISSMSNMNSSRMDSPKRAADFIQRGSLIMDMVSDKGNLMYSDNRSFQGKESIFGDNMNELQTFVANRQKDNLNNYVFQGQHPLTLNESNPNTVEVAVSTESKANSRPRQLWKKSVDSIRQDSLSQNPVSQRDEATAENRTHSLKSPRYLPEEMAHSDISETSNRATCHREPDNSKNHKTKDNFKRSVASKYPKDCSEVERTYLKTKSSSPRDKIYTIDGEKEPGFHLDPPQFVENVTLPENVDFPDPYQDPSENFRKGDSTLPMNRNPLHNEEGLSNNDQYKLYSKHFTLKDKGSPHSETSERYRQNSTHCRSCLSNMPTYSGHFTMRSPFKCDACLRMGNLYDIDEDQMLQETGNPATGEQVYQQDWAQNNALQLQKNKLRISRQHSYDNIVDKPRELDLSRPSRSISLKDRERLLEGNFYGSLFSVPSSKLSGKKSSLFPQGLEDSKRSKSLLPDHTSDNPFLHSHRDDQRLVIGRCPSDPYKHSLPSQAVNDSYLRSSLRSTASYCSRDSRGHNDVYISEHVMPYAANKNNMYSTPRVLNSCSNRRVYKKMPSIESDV
Experimental: Human NR1-1a/NR2A receptor subunits were expressed in a adherent mouse fibroblast 3T3 cell line. After mechanically detaching cells from culture flasks, cells were washed in isotonic buffer (3 times with 140 mM NaCl, 10 mM Hepes, pH 7.5), Cells were then mechanically disrupted by 30 s of ultrasound (Sonorex, Bandelin, Germany, 320 W) and four freeze-thaw cycles. After isolating the membranes by centrifugation and washing in the above buffer, the sample was diluted into the same buffer (1:10^3). […] Upon further dilution of the membrane preparation (1:100) single channels could be recorded (+50 mV applied voltage).

Nc1ccncc1 [4-aminopyridine]
block of bulk current (ion flux reduced) ([1]; 5 mM 4-aminopyridine): 96%

[Ba+2].[Cl-].[Cl-] [Ba^2+, BaCl2]
block in current [2]: 93%

[Ca+2].[Cl-].[Cl-] [Ca^2+, CaCl2]
increase of Ca2+ induced K+ flux (Gardos K+ ion channel): seven

COc1ccc(Cl)cc1C(=O)NCCc1ccc(S(=O)(=O)NC(=O)NC2CCCCC2)cc1 [glibenclamide]
bulk currents blocked [3]: 91%

NCC(=O)O [glycine]
increase in ionic flux [4]: 98%

Kaliotoxin: a specific Kv-channel blocker
block of bulk current (ion flux reduced) ([1]; 50 μM Kaliotoxin): 99% | block of bulk current (ion flux reduced) ([1]; 50 μM Kaliotoxin, listed as KTX): 99.4%
